# Activity calls are given as the source filed them. No cut-off for these calls is given here.
# Key:
# Escherichia coli = test: Antibacterial activity against Escherichia coli MTCC 722 after 24 hrs by NCCLS M7-A5 method; assay type: functional; conditions: MTCC 722, 24 h
# Klebsiella pneumoniae = test: Antibacterial activity against Klebsiella pneumoniae MTCC 109 after 24 hrs by NCCLS M7-A5 method; assay type: functional; conditions: MTCC 109, 24 h
# MCF7 = test: Cytotoxicity against human MCF7 cells up to 150 ug/ml; assay type: functional, cell-based
# Bacillus subtilis = test: Antibacterial activity against Bacillus subtilis MTCC 441 after 24 hrs by NCCLS M7-A5 method; assay type: functional; conditions: MTCC 441, 24 h
# Candida albicans = test: Antifungal activity against Candida albicans at 200 ug/ml; assay type: functional, organism-based
# Staphylococcus aureus = test: Antibacterial activity against Staphylococcus aureus MTCC 96 after 24 hrs by NCCLS M7-A5 method; assay type: functional; conditions: MTCC 96, 24 h
# Aspergillus niger = test: Antifungal activity against Aspergillus niger at 200 ug/ml; assay type: functional, organism-based
SMILES,MIC (Escherichia coli) [µg/mL],MIC (Klebsiella pneumoniae) [µg/mL],Activity (MCF7),MIC (Bacillus subtilis) [µg/mL],Activity (Candida albicans),MIC (Staphylococcus aureus) [µg/mL],Activity (Aspergillus niger)
COc1ccc(C2NC(=O)c3c(C)cc(C)nc3N2)cc1 (configuration not stated),3.25,6.25,Not toxic,6.25,inactive,12.5,inactive
COc1ccc(-c2nc3nc(C)cc(C)c3c(=O)[nH]2)cc1OC,12.5,12.5,Not toxic,6.25,inactive,6.25,inactive
Cc1cc(C)c2c(n1)NC(c1ccco1)NC2=O (configuration not stated),25,12.5,Not toxic,3.25,inactive,12.5,inactive
Cc1cc(C)c2c(=O)[nH]c(-c3ccccc3O)nc2n1,50,100,Not toxic,50,inactive,50,inactive
Cc1cc(C)c2c(n1)NC(c1cccc(C)c1C)NC2=O (configuration not stated),12.5,25,Not toxic,6.25,inactive,12.5,inactive
COc1cc(C2NC(=O)c3c(C)cc(C)nc3N2)ccc1O (configuration not stated),50,50,Not toxic,12.5,inactive,1.25,inactive
Cc1cc(C)c2c(n1)NC(c1cccs1)NC2=O (configuration not stated),12.5,25,Not toxic,6.25,inactive,12.5,inactive
Cc1cc(C)c2c(=O)[nH]c(-c3ccco3)nc2n1,25,50,Not toxic,12.5,inactive,25,inactive
Cc1cc(C)c2c(n1)NC(c1ccccc1O)NC2=O (configuration not stated),50,50,Not toxic,25,inactive,50,inactive
COc1ccc(C2NC(=O)c3c(C)cc(C)nc3N2)cc1OC (configuration not stated),6.25,12.5,Not toxic,3.25,inactive,3.25,inactive
COc1ccc(C2NC(=O)c3c(C)cc(C)nc3N2)c(O)c1 (configuration not stated),50,25,Not toxic,25,inactive,25,inactive
CC(=O)Oc1ccc(C2NC(=O)c3c(C)cc(C)nc3N2)cc1 (configuration not stated),25,50,Not toxic,6.25,inactive,12.5,inactive
COc1cc(-c2nc3nc(C)cc(C)c3c(=O)[nH]2)ccc1O,50,50,Not toxic,25,inactive,12.5,inactive
COc1ccc(-c2nc3nc(C)cc(C)c3c(=O)[nH]2)c(O)c1,50,50,Not toxic,50,inactive,50,inactive
Cc1cc(C)c2c(n1)NC(c1cc(C)c(O)c(C)c1)NC2=O (configuration not stated),6.25,12.5,Not toxic,3.25,inactive,3.25,inactive
COc1ccc(-c2nc3nc(C)cc(C)c3c(=O)[nH]2)c(OC)c1,25,50,Not toxic,12.5,inactive,25,inactive
CC(=O)Oc1ccc(-c2nc3nc(C)cc(C)c3c(=O)[nH]2)cc1,25,50,Not toxic,25.5,inactive,25,inactive
COc1cc(-c2nc3nc(C)cc(C)c3c(=O)[nH]2)cc(OC)c1OC,25,6.25,Not toxic,12.5,inactive,6.25,inactive
Cc1cc(C)c2c(=O)[nH]c(-c3cccs3)nc2n1,12.5,50,Not toxic,12.5,inactive,25,inactive
O=C(O)c1cn(C2CC2)c2cc(N3CCNCC3)c(F)cc2c1=O [CIPROFLOXACIN],,0.78,,0.78,,0.39,
Cc1cc(C)c2c(=O)[nH]c(-c3cccc(Cl)c3Cl)nc2n1,,,Not toxic,50,inactive,100,inactive
COc1ccc(C2NC(=O)c3c(C)cc(C)nc3N2)c(OC)c1 (configuration not stated),25,12.5,Not toxic,3.25,inactive,12.5,inactive
Cc1cc(C)c2c(n1)NC(c1cccc(Cl)c1Cl)NC2=O (configuration not stated),,100,Not toxic,25,inactive,50,inactive
COc1cc(C2NC(=O)c3c(C)cc(C)nc3N2)cc(OC)c1OC (configuration not stated),3.25,1.25,Not toxic,3.25,inactive,1.25,inactive
Cc1cc(C)c2c(=O)[nH]c(-c3cc(C)c(O)c(C)c3)nc2n1,6.25,12.5,Not toxic,12.5,inactive,6.25,inactive
Cc1cc(C)c2c(=O)[nH]c(-c3cccc(C)c3C)nc2n1,12.5,50,Not toxic,12.5,inactive,12.5,inactive
COc1ccc(-c2nc3nc(C)cc(C)c3c(=O)[nH]2)cc1,12.5,25,Not toxic,25,inactive,12.5,inactive

# Reference: ChEMBL document CHEMBL1138549, “Synthesis of new 2-substituted pyrido[2,3-d]pyrimidin-4(1H)-ones and their antibacterial activity” (2009)
